Measured values as given in article PMC9254247, “Dual-sensitive antibacterial peptide nanoparticles prevent dental caries” (Theranostics, 2022).
No end group written: not given here.

How the values were obtained:
[1] = system: clinically isolated S.mutans strains; assay: Bactericidal activity against clinically isolated S. mutans strains (CFU counting); type: cell-based, Streptococcus mutans; conditions: for bacterial viability (survival): 10 min, CFU
Protocol: Table S3 The bactericidal activity of pHly -1 NPs and CHX against clinically isolated S.mutans strains a
“a” represents the bacterial viability after the pHly-1 NPs and CHX treatment for 10 min. The killing activity of pHly -1 NPs and CHX was measured against clinically isolated S.mutans strains by counting the CFU of alive bacteria. […]
Minimal inhibition concentration (MIC) determination . S.mutans UA159 (ATCC 700610) and 20 clinical S.mutans strains were used. S.mutans UA159 was purchased from Shanghai Biofeng Biotechnology Co., LTD. These bacteria grown in brain heart infusion broth (BHI, Beijing Land Bridge, China) at 37 °C under anaerobic conditions. […]
Bacterial killing by pHly-1 NPs at various pHs. pHly-1 NPs were diluted in BHI medium of different pHs (pH 4.5, 5.5, 6.8, and 7.0) to obtain specific diluted solutions (final volume of 200 μ L). 1 μ L bacterial suspension (2×10^8 CFU/mL) in the logarithmic phase was added into corresponding diluted solutions and mixed individually. After being incubated for 10 min at 37 °C under anaerobic conditions, aliquots of 20 μL bacterial suspension were plated on BHI agar plates. The bacterial killing activity of pHly -1 NPs was measured by counting the CFU of alive bacteria with agar plating after incubation under anaerobic conditions for 48 h at 37 °C. The results were determined and presented of three repeats. Bacterial survival(%) = CFU of bacteria treated with drugs/CFU of bacteria treated with negative control× 100% 2. […]
For SEM, S. mutans UA159 was treated by the same way to SYTO 9/PI double staining asay and then harvested, washed, and then fixed in 2.5 % glutaraldehyde for 3 h. After dehydration by serial concentrations of ethanol solutions (10%, 25%, 50%, 75%, 95%, and 100%) and lyophiliz ation overnight, the lyophilized samples were coated with goldand then photographed by SEM.

pepsin = assay: Degradation by pepsin (RP-HPLC); type: in vitro ADME; conditions: peptide 100 µg/mL, pepsin 10 µg/mL, Tris buffer pH 4.0, 37 °C, 5 min, MALDI-TOF MS
Protocol: Figure 7 The biosafety of pHly-1 NPs to normal oral and gastric organoids. […] (B and C) The representative gastric organoid images (B) and oral organoid images (C) after 500 µM pHly-1 NPs or CHX treatment. (D and E) the viability of gastric (D) and oral (E) organoids after treatment with pHly-1 NPs or CHX was assessed by CellTiter-Blue cell viability assay. Scale bar, 100 µm. Each experiment was repeated 3 times. (F) RP-HPLC analysis of pHly-1 NPs degradation by pepsin. pHly-1 NPs (100 µg/mL) was incubated with pepsin (10 µg/mL) in Tris buffer (pH 4.0) at 37 °C for 5 min and submitted to RP-HPLC analysis. The HPLC fractions were analyzed by MALDI-TOF MS. The black arrow represents the intact peptide of pHly-1 NPs and the molecular weight is 2865.1 Da (Figure S14). After 5 min of pepsin hydrolysis, the molecular weight of the mainly peptide fragment is 1650.6 Da (Figure S14). All of the data are represented as average ± s.d.

[H]/N=C(\N/C(=N/[H])NCCCCCCNC(=N)NC(=N)Nc1ccc(Cl)cc1)Nc1ccc(Cl)cc1 [CHX, chlorhexidine]
viability ([1]; 55 μM, in 4 strains): over 90% | bacterial viability (survival) ([1]; strain CS-1, pH 4.5, 22 μM): 95.2% | bacterial viability (survival) ([1]; strain CS-1, pH 4.5, 55 μM): 54% | bacterial viability (survival) ([1]; strain CS-1, pH 5.5, 22 μM): 91.6% | bacterial viability (survival) ([1]; strain CS-1, pH 5.5, 55 μM): 31.3% | bacterial viability (survival) ([1]; strain CS-2, pH 4.5, 22 μM): 96.4% | bacterial viability (survival) ([1]; strain CS-2, pH 4.5, 55 μM): 69.1% | bacterial viability (survival) ([1]; strain CS-2, pH 5.5, 22 μM): 86.9% | bacterial viability (survival) ([1]; strain CS-2, pH 5.5, 55 μM): 76.6% | bacterial viability (survival) ([1]; strain CS-4, pH 4.5, 22 μM): 100% | bacterial viability (survival) ([1]; strain CS-4, pH 4.5, 55 μM): 66.4% | bacterial viability (survival) ([1]; strain CS-4, pH 5.5, 22 μM): 100% | bacterial viability (survival) ([1]; strain CS-4, pH 5.5, 55 μM): 74.6% | bacterial viability (survival) ([1]; strain CS-5, pH 4.5, 22 μM): 100% | bacterial viability (survival) ([1]; strain CS-5, pH 4.5, 55 μM): 67.7% | bacterial viability (survival) ([1]; strain CS-5, pH 5.5, 22 μM): 89.6% | bacterial viability (survival) ([1]; strain CS-5, pH 5.5, 55 μM): 54.9% | bacterial viability (survival) ([1]; strain CS-6, pH 4.5, 22 μM): 106% | bacterial viability (survival) ([1]; strain CS-6, pH 4.5, 55 μM): 67.0% | bacterial viability (survival) ([1]; strain CS-6, pH 5.5, 22 μM): 95.6% | bacterial viability (survival) ([1]; strain CS-6, pH 5.5, 55 μM): 88.8% | bacterial viability (survival) ([1]; strain CS-7, pH 4.5, 22 μM): 97.0% | bacterial viability (survival) ([1]; strain CS-7, pH 4.5, 55 μM): 54% | bacterial viability (survival) ([1]; strain CS-7, pH 5.5, 22 μM): 91.6% | bacterial viability (survival) ([1]; strain CS-7, pH 5.5, 55 μM): 67.7% | bacterial viability (survival) ([1]; strain CS-8, pH 4.5, 22 μM): 79.5% | bacterial viability (survival) ([1]; strain CS-8, pH 4.5, 55 μM): 49.4% | bacterial viability (survival) ([1]; strain CS-8, pH 5.5, 22 μM): 81.8% | bacterial viability (survival) ([1]; strain CS-8, pH 5.5, 55 μM): 61.8% | bacterial viability (survival) ([1]; strain CS-9, pH 4.5, 22 μM): 83.9% | bacterial viability (survival) ([1]; strain CS-9, pH 4.5, 55 μM): 77% | bacterial viability (survival) ([1]; strain CS-9, pH 5.5, 22 μM): 73.8% | bacterial viability (survival) ([1]; strain CS-9, pH 5.5, 55 μM): 46.9% | bacterial viability (survival) ([1]; strain CS-10, pH 4.5, 22 μM): 83.6% | bacterial viability (survival) ([1]; strain CS-10, pH 4.5, 55 μM): 52.3% | bacterial viability (survival) ([1]; strain CS-10, pH 5.5, 22 μM): 68.9% | bacterial viability (survival) ([1]; strain CS-10, pH 5.5, 55 μM): 68.2% | bacterial viability (survival) ([1]; strain CS-11, pH 4.5, 22 μM): 100% | bacterial viability (survival) ([1]; strain CS-11, pH 4.5, 55 μM): 50.7% | bacterial viability (survival) ([1]; strain CS-11, pH 5.5, 22 μM): 140% | bacterial viability (survival) ([1]; strain CS-11, pH 5.5, 55 μM): 59.4% | bacterial viability (survival) ([1]; strain CS-12, pH 4.5, 22 μM): 98.6% | bacterial viability (survival) ([1]; strain CS-12, pH 4.5, 55 μM): 91.1% | bacterial viability (survival) ([1]; strain CS-12, pH 5.5, 22 μM): 110% | bacterial viability (survival) ([1]; strain CS-12, pH 5.5, 55 μM): 74.2% | bacterial viability (survival) ([1]; strain CS-13, pH 4.5, 22 μM): 93.5% | bacterial viability (survival) ([1]; strain CS-13, pH 4.5, 55 μM): 87.4% | bacterial viability (survival) ([1]; strain CS-13, pH 5.5, 22 μM): 74.0% | bacterial viability (survival) ([1]; strain CS-13, pH 5.5, 55 μM): 65.8% | bacterial viability (survival) ([1]; strain CS-14, pH 4.5, 22 μM): 100% | bacterial viability (survival) ([1]; strain CS-14, pH 4.5, 55 μM): 51.9% | bacterial viability (survival) ([1]; strain CS-14, pH 5.5, 22 μM): 74.2% | bacterial viability (survival) ([1]; strain CS-14, pH 5.5, 55 μM): 71.6% | bacterial viability (survival) ([1]; strain CS-16, pH 4.5, 22 μM): 95.9% | bacterial viability (survival) ([1]; strain CS-16, pH 4.5, 55 μM): 10.9% | bacterial viability (survival) ([1]; strain CS-16, pH 5.5, 22 μM): 87.9% | bacterial viability (survival) ([1]; strain CS-16, pH 5.5, 55 μM): 20% | bacterial viability (survival) ([1]; strain CS-17, pH 4.5, 22 μM): 108.2% | bacterial viability (survival) ([1]; strain CS-17, pH 4.5, 55 μM): 92.3% | bacterial viability (survival) ([1]; strain CS-17, pH 5.5, 22 μM): 102.0% | bacterial viability (survival) ([1]; strain CS-17, pH 5.5, 55 μM): 48.3% | bacterial viability (survival) ([1]; strain CS-18, pH 4.5, 22 μM): 68.2% | bacterial viability (survival) ([1]; strain CS-18, pH 4.5, 55 μM): 71.5% | bacterial viability (survival) ([1]; strain CS-18, pH 5.5, 22 μM): 114.8% | bacterial viability (survival) ([1]; strain CS-18, pH 5.5, 55 μM): 92.2% | bacterial viability (survival) ([1]; strain CS-19, pH 4.5, 22 μM): 93.0% | bacterial viability (survival) ([1]; strain CS-19, pH 4.5, 55 μM): 101% | bacterial viability (survival) ([1]; strain CS-19, pH 5.5, 22 μM): 96.9% | bacterial viability (survival) ([1]; strain CS-19, pH 5.5, 55 μM): 87.9% | bacterial viability (survival) ([1]; strain CS-20, pH 4.5, 22 μM): 91.0% | bacterial viability (survival) ([1]; strain CS-20, pH 4.5, 55 μM): 100% | bacterial viability (survival) ([1]; strain CS-20, pH 5.5, 22 μM): 103.9% | bacterial viability (survival) ([1]; strain CS-20, pH 5.5, 55 μM): 88.9%

KIWFHAMHIIAHFIAHQHLHQHL-NH2 [pHly-1 NPs]
degradation by pepsin (pepsin): rapidly degraded
